Data from ChEMBL document CHEMBL4483862, “Open-source discovery of chemical leads for next-generation chemoprotective antimalarials” (2018).

System: Plasmodium berghei
Assay: Luciferase/luciferin-expressing antifolate-resistant parasites were used to infect a culture of HepG2 cells that were pre-incubated with compounds. Infected hepatocytes emit light due to the luciferase reaction. Assay results are presented as the percent inhibition of light emission compared to control. […]
Assay type: functional
Settings: sporozoite; for IC90: read-out: LUCIFERASE INFECTION ASSAY - IC90

Structure (SMILES) | IC90 [µM] | also measured
CC(C)(C)c1ccc(C(=O)NCc2ccco2)cc1 | 10.4 | IC50 (PBLUC_HILL_SLOPE 5.38, PBLUC_R_SQUARED 0.421, read-out: LUCIFERASE INFECTION ASSAY - IC50): 6.91 µM
CCOC(=O)C1=C(c2ccccc2)N=C(N)NC1c1ccc(OCc2ccc(Cl)cc2)c(OC)c1 (stereo not given) | > 10 | IC50 (PBLUC_HILL_SLOPE 5.7, PBLUC_R_SQUARED 0.538, read-out: LUCIFERASE INFECTION ASSAY - IC50): 7.1 µM
CCN(c1ccccc1)S(=O)(=O)c1ccc(Cl)c(NC(=O)Nc2ccc(Cl)cc2C#N)c1 | 7.06 | IC50 (PBLUC_HILL_SLOPE 5.41, PBLUC_R_SQUARED 0.801, read-out: LUCIFERASE INFECTION ASSAY - IC50): 4.71 µM
COc1cc(/C=N/NC(=S)NC2CC3CC2C2C=CCC32)ccc1O (stereo not given) | > 9.23 | IC50 (PBLUC_HILL_SLOPE 5.25, PBLUC_R_SQUARED 0.0239, read-out: LUCIFERASE INFECTION ASSAY - IC50): > 9.23 µM
CCCNC(=O)C1(C)CCN(Cc2ccc3ccccc3c2Br)C1 (stereo not given) | > 8.48 | IC50 (PBLUC_HILL_SLOPE 5.63, PBLUC_R_SQUARED 0.42, read-out: LUCIFERASE INFECTION ASSAY - IC50): 5.79 µM
c1csc(-c2cn3c(-c4ccncc4)cnc3cn2)c1 | > 11.9 | IC50 (PBLUC_HILL_SLOPE 5.41, PBLUC_R_SQUARED 0.452, read-out: LUCIFERASE INFECTION ASSAY - IC50): 10.5 µM
CCOC(=O)c1ccc(Oc2nc3ccccc3nc2C(C#N)C(=O)OC)cc1 (stereo not given) | 7.6 | IC50 (PBLUC_HILL_SLOPE 5.75, PBLUC_R_SQUARED 0.407, read-out: LUCIFERASE INFECTION ASSAY - IC50): 5.19 µM
COc1cc(NC(=O)N2Cc3cnc(Nc4ccc(Oc5ccccc5)cc4)nc3C2)cc(OC)c1OC | > 6.43 | IC50 (PBLUC_HILL_SLOPE 5.21, PBLUC_R_SQUARED 0.0507, read-out: LUCIFERASE INFECTION ASSAY - IC50): 5.26 µM
COC(=O)c1cccc(C(=O)Nc2nccn2Cc2ccccc2)c1 | 9.3 | IC50 (PBLUC_HILL_SLOPE 5.71, PBLUC_R_SQUARED 0.673, read-out: LUCIFERASE INFECTION ASSAY - IC50): 6.33 µM
Cc1c(C(=O)OCc2ccc(C(C)C)cc2)sc2nc3n(c(=O)c12)CCC3 | > 10 | IC50 (PBLUC_HILL_SLOPE 5.57, PBLUC_R_SQUARED 0.253, read-out: LUCIFERASE INFECTION ASSAY - IC50): 6.97 µM
NC(COCc1ccccc1)c1csc(NC(=O)Nc2ccccc2-c2ccccc2)n1 (stereo not given) | 5.31 | IC50 (PBLUC_HILL_SLOPE 5.09, PBLUC_R_SQUARED 0.778, read-out: LUCIFERASE INFECTION ASSAY - IC50): 3.45 µM
C=CCn1c(SCC(=O)c2cc(C)n(-c3cc(F)ccc3F)c2C)nc2scc(-c3ccccc3)c2c1=O | 8.56 | IC50 (PBLUC_HILL_SLOPE 5.29, PBLUC_R_SQUARED 0.561, read-out: LUCIFERASE INFECTION ASSAY - IC50): 5.65 µM
Cc1nn(Cc2ccccc2Cl)c(C)c1C(=O)Nc1nc(-c2ccccn2)cs1 | 6.51 | IC50 (PBLUC_HILL_SLOPE 5.44, PBLUC_R_SQUARED 0.0706, read-out: LUCIFERASE INFECTION ASSAY - IC50): 4.34 µM
O=C(c1cc(-c2ccccc2)nc2ccccc12)N1N=CCC1(O)C(F)(F)F (stereo not given) | 8.59 | IC50 (PBLUC_HILL_SLOPE 5.58, 3.40, PBLUC_R_SQUARED 0.0168, 0.865, read-out: LUCIFERASE INFECTION ASSAY - IC50): 4.5 µM
Cc1c(C)c(C)c(S(=O)(=O)Oc2ccccc2N2CC(C)OC(C)C2)c(C)c1C (stereo not given) | > 7.9 | IC50 (PBLUC_HILL_SLOPE 5.73, PBLUC_R_SQUARED 0.021, read-out: LUCIFERASE INFECTION ASSAY - IC50): > 7.9 µM
COc1cc(OC)cc(-c2cn3c(-c4ccc(CO)cc4)cnc3cn2)c1 | 8.34 | IC50 (PBLUC_HILL_SLOPE 5.1, PBLUC_R_SQUARED 0.643, read-out: LUCIFERASE INFECTION ASSAY - IC50): 5.42 µM
Clc1ccccc1-c1cn2c(-c3ccncc3)cnc2cn1 | > 10.8 | IC50 (PBLUC_HILL_SLOPE 5.69, PBLUC_R_SQUARED 0.296, read-out: LUCIFERASE INFECTION ASSAY - IC50): 10.2 µM
CCC(C)NC(=O)c1c(NC(=O)c2ccc(C)cc2)nc2ccc(C)cn12 (stereo not given) | 7.69 | IC50 (PBLUC_HILL_SLOPE 5.31, PBLUC_R_SQUARED 0.131, read-out: LUCIFERASE INFECTION ASSAY - IC50): 5.08 µM
CCN(C(=O)c1ccc(NC(=O)C2CC2)s1)c1ccccc1C | > 10 | IC50 (PBLUC_HILL_SLOPE 5.48, PBLUC_R_SQUARED 0.146, read-out: LUCIFERASE INFECTION ASSAY - IC50): 9.18 µM
CCN(CC)S(=O)(=O)c1cc(C)c(C)c(NC(=O)c2cc(C3CC3)nc3onc(C)c23)c1 | 9.64 | IC50 (PBLUC_HILL_SLOPE 5.13, PBLUC_R_SQUARED 0.485, read-out: LUCIFERASE INFECTION ASSAY - IC50): 6.28 µM

Structure (SMILES) | IC90 [µM] | also measured
O=C(NCc1sccc1Cl)Nc1cccc(Cl)c1 | > 11 | IC50 (PBLUC_HILL_SLOPE 5.24, PBLUC_R_SQUARED 0.165, read-out: LUCIFERASE INFECTION ASSAY - IC50): 7.24 µM
Cn1nc(C(=O)N2CCc3ccccc3C2)c2c1CCC(NCCc1nc(-c3ccccc3)cs1)C2 (stereo not given) | > 6.63 | IC50 (PBLUC_HILL_SLOPE 5.11, PBLUC_R_SQUARED 0.298, read-out: LUCIFERASE INFECTION ASSAY - IC50): 5.56 µM
O=C(c1cnc(Nc2cccc(C(F)(F)F)c2)[nH]1)c1ccccc1O | 7.03 | IC50 (PBLUC_HILL_SLOPE 5.05, PBLUC_R_SQUARED 0.685, read-out: LUCIFERASE INFECTION ASSAY - IC50): 4.55 µM
O=C(CCc1c(-c2ccc(F)cc2)[nH]c2ccc(F)cc12)N1CCN(c2ccncc2)CC1 | 8.48 | IC50 (PBLUC_HILL_SLOPE 5.15, PBLUC_R_SQUARED 0.285, read-out: LUCIFERASE INFECTION ASSAY - IC50): 5.53 µM
Cc1cc(C)n(-c2nc(-c3ccccc3)cc(N3CCOCC3)n2)n1 | 6.26 | IC50 (PBLUC_HILL_SLOPE 5.14, PBLUC_R_SQUARED 0.351, read-out: LUCIFERASE INFECTION ASSAY - IC50): 4.08 µM
Cc1cc(C)n(-c2nc(C)c(Br)c(NC(C)c3ccccc3)n2)n1 (stereo not given) | > 8.54 | IC50 (PBLUC_HILL_SLOPE 5.33, PBLUC_R_SQUARED 0.256, read-out: LUCIFERASE INFECTION ASSAY - IC50): 5.95 µM
CC(C)Oc1cccc(-c2cn3c(-c4ccc(C(=O)NC5CC5)cc4)cnc3cn2)c1 | 7.18 | IC50 (PBLUC_HILL_SLOPE 5.31, PBLUC_R_SQUARED 0.43, read-out: LUCIFERASE INFECTION ASSAY - IC50): 4.75 µM
CCC(Nc1nc(C(F)(F)F)nc2ccccc12)c1ccc(Br)cc1 (stereo not given) | > 10 | IC50 (PBLUC_HILL_SLOPE 5.54, PBLUC_R_SQUARED 0.0475, read-out: LUCIFERASE INFECTION ASSAY - IC50): > 10 µM
CN(C)CCNC(=O)c1cccc(-c2cnc3ccc(-c4cccc(F)c4)nn23)c1 | 9.29 | IC50 (PBLUC_HILL_SLOPE 5.28, PBLUC_R_SQUARED 0.0552, read-out: LUCIFERASE INFECTION ASSAY - IC50): 6.13 µM
c1ccc2[nH]c(CN3CCN(Cc4csc5ccccc45)CC3)nc2c1 | > 10 | IC50 (PBLUC_HILL_SLOPE 5.23, 12.9, PBLUC_R_SQUARED 0.488, 0.411, read-out: LUCIFERASE INFECTION ASSAY - IC50): 9.2 µM
CC(OC(=O)c1cc(-c2ccccc2)nc2c1cnn2Cc1ccccc1)C(=O)NC(C)(C)C (stereo not given) | 6.73 | IC50 (PBLUC_HILL_SLOPE 5.07, PBLUC_R_SQUARED 0.772, read-out: LUCIFERASE INFECTION ASSAY - IC50): 4.36 µM
CCNC(=O)c1nn(CC2CC2)c2c1CN(C(=O)c1cc(-c3ccccc3F)n[nH]1)CC2 | 4.07 | IC50 (PBLUC_HILL_SLOPE 5.13, PBLUC_R_SQUARED 0.551, read-out: LUCIFERASE INFECTION ASSAY - IC50): 2.65 µM
OCc1ccc(-c2cnc3cnc(-c4cccnc4)cn23)cc1 | 7.72 | IC50 (PBLUC_HILL_SLOPE 5.76, PBLUC_R_SQUARED 0.27, read-out: LUCIFERASE INFECTION ASSAY - IC50): 5.27 µM
Cc1[nH]c2ccccc2c1C(=O)C(=O)Nc1ccc(N2CCCCC2)nc1 | 9.82 | IC50 (PBLUC_HILL_SLOPE 5.45, PBLUC_R_SQUARED 0.664, read-out: LUCIFERASE INFECTION ASSAY - IC50): 6.56 µM
N#Cc1ccc(Cl)cc1NC(=O)CNc1cc(C(F)(F)F)ccc1N1CCCC1 | 4.15 | IC50 (PBLUC_HILL_SLOPE 5.67, PBLUC_R_SQUARED 0.48, read-out: LUCIFERASE INFECTION ASSAY - IC50): 2.82 µM
O=C(Nc1ccc(-c2nc3ccccc3[nH]2)cc1)c1cccc(N2CCCS2(=O)=O)c1 | 9.62 | IC50 (PBLUC_HILL_SLOPE 5.48, 3.67, PBLUC_R_SQUARED 0.355, 0.637, read-out: LUCIFERASE INFECTION ASSAY - IC50): 5.88 µM
COc1cc(Nc2ccn3ncc(-c4ccc(OC(F)(F)F)cc4)c3n2)cc(OC)c1OC | 5.74 | IC50 (PBLUC_HILL_SLOPE 5.07, PBLUC_R_SQUARED 0.236, read-out: LUCIFERASE INFECTION ASSAY - IC50): 3.72 µM
CCCOc1cccc(NC(=O)c2cc(CC(C)C)oc2C)c1 | 10.1 | IC50 (PBLUC_HILL_SLOPE 5.71, PBLUC_R_SQUARED 0.294, read-out: LUCIFERASE INFECTION ASSAY - IC50): 6.86 µM
COc1ccc(CCn2nc(C(=O)NC3CC3)c3c2CCN(C(=O)c2cc(C)n[nH]2)C3)cc1 | 4.91 | IC50 (PBLUC_HILL_SLOPE 5.54, PBLUC_R_SQUARED 0.701, read-out: LUCIFERASE INFECTION ASSAY - IC50): 3.31 µM
COc1ccc(-c2cnc3ccc(NCc4cccc(Cl)c4)nn23)cn1 | 7.71 | IC50 (PBLUC_HILL_SLOPE 5.4, PBLUC_R_SQUARED 0.229, read-out: LUCIFERASE INFECTION ASSAY - IC50): 5.13 µM
